Experimental data from US6812223B2, “Crystalline glucosamine sulfate metal salts and processes for preparing the same” (Nicholas Piramal India Limited, priority 2000, dated 2004).

Experiment: Estimation of metal content in the mixed glucosamine sulphate metal salt (Inductively Coupled Plasma Method)
Assay type: physicochemical
Conditions: ICP; for Potassium content: measured at 766.491 nm; for Sodium content: measured at 589.592 nm
Procedure: Estimation of Metal Content in the Mixed Glucosamine Sulphate Metal Salt The sodium content in the mixed glucosamine sulphate sodium salt or the potassium content in the mixed glucosamine sulphate potassium salt respectively is estimated using Inductively Coupled Plasma Method. The sodium content was measured at 589.592 nm and the potassium content was measured at 766.491 nm. [table]

Substance | Potassium content | Potassium content (listed as compound I (M+K)) | Sodium content | Sodium content (listed as compound I (M=Na))
Glucosamine Sulphate Potassium Salt (Low Potassium Content) [Example 2] | 7.16% | 7.16% |  | 
Glucosamine Sulphate Sodium Salt (Low Sodium Content) [Example 1] |  |  | 4.22% | 4.22%
